Consider six compounds from US5322846A, “4-methylthiazole derivatives, their methods of preparation and the pharmaceutical compositions in which they are present” (Institut de Recherches Chimiques et Biologiques Appliquees …, priority 1990, dated 1994).

Molecules are shown by their SMILES. Where a name gives a salt, the structure may show the parent alone. Read-outs that look alike come from different tables or passages of the source.

For data set [1], the system named is lethal effect of norepinephrine. The data set is described as follows: Adrenolytic activity in vivo on the lethal effect of norepinephrine in rats. Particulars: for ED50: Rattus norvegicus, wake male rats, norepinephrine 0.4 mg.kg^-1 intravenous, prior administration of product, read-out: ED50 (dose which protects 50% of the animals); for adrenolytic activity in the whole animals: rats, in words. The protocol: The intravenous injection of norepinephrine (0.4 mg.kg^-1) into wake male rats causes the death of 100% of the animals. The prior administration of a substance which has an alpha-blocking property makes it possible to reduce this toxicity.
The results are expressed in the form of the 50% effective dose (ED50), i.e. the dose in mg.kg^-1 which protects 50% of the animals (Table 5).

Data set [2] addresses T1, postsynaptic alpha-adrenergic receptors (Rattus norvegicus, UniProt P43140).
T1 construct: causes contraction of the isolated vas deferens; from tissue; host or cells: isolated rat vas deferens
T1 sequence (P43140 1-466): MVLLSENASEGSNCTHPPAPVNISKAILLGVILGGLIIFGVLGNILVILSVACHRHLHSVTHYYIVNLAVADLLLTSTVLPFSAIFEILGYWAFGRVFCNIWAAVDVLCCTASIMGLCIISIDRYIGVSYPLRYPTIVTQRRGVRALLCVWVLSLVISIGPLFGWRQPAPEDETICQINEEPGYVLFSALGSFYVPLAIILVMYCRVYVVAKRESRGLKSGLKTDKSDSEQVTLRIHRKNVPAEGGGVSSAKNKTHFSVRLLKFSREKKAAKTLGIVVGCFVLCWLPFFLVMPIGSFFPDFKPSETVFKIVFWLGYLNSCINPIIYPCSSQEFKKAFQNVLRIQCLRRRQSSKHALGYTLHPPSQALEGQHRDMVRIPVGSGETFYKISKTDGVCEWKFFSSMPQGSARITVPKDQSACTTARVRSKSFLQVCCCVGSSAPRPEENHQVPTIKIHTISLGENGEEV
The data set is described as follows: Alpha-blocking activity towards norepinephrine on isolated rat vas deferens. It counts as biochemical. Particulars: -log of concentration requiring doubled norepinephrine, read-out: pA2 (converted). The protocol: Stimulation of the postsynaptic alpha-adrenergic receptors by norepinephrine causes contraction of the isolated vas deferens.
The concentration of product in whose presence the norepinephrine concentration must be doubled in order to obtain the same effect as in the absence of said product is determined. The logarithm of this concentration, with the opposite sign, constitutes the pA2 of the products.
Their alpha-blocking activity is high since it appears for low concentrations of between 10^-6 M and 10^-8 M.

A short description of data set [3]: Acute toxicity in mice (oral, LD50). As to conditions: mouse, in vivo, male mice, single dose, 14-day observation. The protocol: The products were administered orally in a single dose to male mice with an average weight of 22 g. The mortality was recorded after a 14-day observation period.
The results are expressed in the form of the 50% lethal dose (LD50), i.e. the theoretical dose in mg.kg^-1, administered orally, which causes the death of 50% of the animals.
The majority of the molecules have an LD50 of more than 1 g.kg^-1. These are therefore products with a low toxicity after a single administration.

Data set [4] relates to hypertension induced by norepinephrine. Briefly: Inhibitory activity towards hypertension induced by norepinephrine in anesthetized rabbits. It counts as in vivo. Particulars: anesthetized male rabbits, intravenous; for ED50: Oryctolagus cuniculus, read-out: ID50 (50% inhibition of norepinephrine-induced hypertension). The procedure: The blood pressure is measured by catheterization of the left carotid artery of anesthetized male rabbits. An increase in blood pressure is induced by an intravenous injection of norepinephrine. This hypertension can be inhibited by the prior administration of molecules with an alpha-blocking potential.
These are presented in Table 6 in the form of the 50% inhibitory dose (ID50), which is defined as the dose of product which, when administered intravenously, causes a 50% inhibition of the hypertension induced by norepinephrine.

The subject of data set [5] is femoral blood pressure and heart rate. Briefly: Cardiovascular activity (blood pressure and heart rate) in anesthetized rats. It counts as in vivo. Particulars: for Heart rate, maximum effect in % / ED25: I.V., pentobarbital-anesthetized rats; for ED25: Rattus norvegicus, iv, 25% drop in average blood pressure. The protocol:
The cardiovascular effects of three products were studied in rats anesthetized with pentobarbital and placed under artificial respiration. The femoral blood pressure and the heart rate are recorded by means of a GOULD-BRUSH apparatus.
The products are administered intravenously in increasing doses. Three animals are tested per product. The dose which causes a 25% drop in average blood pressure (ED25) was evaluated for each product and compared with nicardipine 1 to 5 min after administration.
The products have dose-dependent hypotensive effects but have little or no effect on the heart rate (Table 7). The most hypotensive in terms of the effective dose is B 1395 (ED25 of 0.004 mg.kg^-1).

[6] abbreviates: 1 min, 1 minute, read-out: Blood pressure: Hypotension, ED25 at 1 minute.
Where [7] appears, read: 5 min, 5 minutes, read-out: Blood pressure: Hypotension, ED25 at 5 minutes.

One may read the LD50 as the dose expected to kill half of the subjects tested. For `Cc1ncsc1OCCN1CCN(c2ccccc2)CC1` [B 1216, 4-methyl-5-[2-(4-phenylpiperazin-1-yl)ethoxy]thiazole], the ED50 in data set [1] is 33 mg/kg; in data set [4], more than 3 mg/kg. Moreover, the Kb in data set [2] is 89.1 nM. The same compound showed an LD50 at 336 h in data set [3] of more than 1000 mg/kg.
As to `CCOc1ccccc1N1CCN(CCOc2scnc2C)CC1` [B 1258, 4-methyl-5-[2-(4-o-ethoxyphenylpiperazin-1-yl)ethoxy]thiazole], the values for the ED50 in data set [1] and in data set [4] were 6.5 mg/kg and 5.6 mg/kg, respectively. In data set [1], the “adrenolytic activity in the whole animals” value (“adrenolytic activity” for short) is “very active”. For the same compound, the Kb in data set [2] is 15.8 nM. The compound also yielded an LD50 at 336 h in data set [3] of more than 1000 mg/kg. Also, the “Heart rate, maximum effect in %” value in data set [5] is listed as -5.6%. Moreover, the ED25 came to 0.8 mg/kg in data set [5] (setting [6]) and 1 mg/kg in data set [5] (setting [7]).
In the case of `Cc1ncsc1OCCN1CCN(c2ccccc2F)CC1` [B 1305, 4-methyl-5-[2-(4-o-fluorophenylpiperazin-1-yl)-ethoxy]thiazole], the ED50 in data set [1] was found to be 35 mg/kg; in data set [4], 3 mg/kg. Further, the Kb in data set [2] was 81.3 nM. The compound further came in with an LD50 at 336 h in data set [3] of more than 1000 mg/kg.
In the same order, the values of `CCCOc1ccccc1N1CCN(CCOc2scnc2C)CC1` [B 1342, 4-methyl-5-[2-(4-o-propoxyphenylpiperazin-1-yl)-ethoxy]thiazole] are 4 mg/kg, 7.3 mg/kg, 16.2 nM and more than 1000 mg/kg.
With `CCOc1ccccc1N1CCN(CC(O)COc2scnc2C)CC1` (stereo not drawn) [B 1392, 3-(4-o-ethoxyphenylpiperazin-1-yl)-1-(4-methylthiazolyl-5-oxy)propan-2-ol], the ED50 in data set [1] is 0.3 mg/kg; in data set [4], 2.6 mg/kg. The “adrenolytic activity” value in data set [1] is reported as “very active”. Also, the Kb in data set [2] is 13.2 nM. This compound also gave an LD50 at 336 h in data set [3] of 260 mg/kg. The “Heart rate, maximum effect in %” value in data set [5] is on record as -11.2%. The ED25 stood at 0.024 mg/kg in data set [5] (setting [6]) and 0.048 mg/kg in data set [5] (setting [7]).
As for `CCCOc1ccccc1N1CCN(CC(O)COc2scnc2C)CC1` (stereo not drawn) [B 1395, 3-(4-o-propoxyphenylpiperazin-1-yl)-1-(4-methylthiazolyl-5-oxy)propan-2-olmonohydrochloride], the ED50 in data set [1] and in data set [4] was 0.2 mg/kg in each case. Further, in data set [1], the “adrenolytic activity” value is “very active”. Further, in data set [2], the Kb was 20 nM. Also, in data set [3], the LD50 at 336 h is 515 mg/kg. The active dose result in data set [4] is “less than 1 mg.kg^-1”. In addition, the “effectiveness against norepinephrine-induced hypertension” value in data set [4] (in words) was “particularly effective”. Besides, the “hypotensive potential compared with nicardipine” value in data set [5] (ED25 values 5 min after I.V. injection, in words) is “on a level with that of nicardipine”. Also, the “Heart rate, maximum effect in %” value in data set [5] was -4%. Moreover, the ED25 in data set [5] (setting [6]) turned out to be 0.004 mg/kg; in data set [5] (setting [7]), 0.1 mg/kg.
